Source: paper PMC8812913 (PLoS Neglected Tropical Diseases, 2022)
Where two headings read alike, the source gives them in different places.

What was measured:
[1] = male, Syrian golden, hamster, in vivo, po, 500 mg/kg
[2] = male, Syrian golden, hamster, in vivo, po, 500 mg/kg; remark: listed apart in the source
in vivo [3] = settings: male, Syrian golden, hamster, po, 500 mg/kg
in vivo [4] = settings: male, Syrian golden, hamster, po, 500 mg/kg; remark: listed apart in the source
Yellow fever virus (YFV) [5] = settings: read-out: EC50, 50% inhibition of the virus-induced cytopathic effect (CPE); cited from earlier work
Yellow fever virus (YFV) [6] = settings: read-out: EC90 in reducing viral yield; cited from earlier work
HCV clinical isolates = settings: cited from earlier work
[7] = cited from earlier work
[8] = cited from earlier work; remark: listed apart in the source

| Compound | Plasma concentration at 12 h post dose (Ctrough) [1] [nmol/mL] | Tmax [2] [h] | AUC(0-t) (in vivo [3]) [µM·h] | Cmax (in vivo [3]) [nM] | MRT last (in vivo [3]) [h] | Tmax (in vivo [3]) [h] | MRT last (in vivo [4]; MRT0-last) [h] | Concentration measured in brain tissue [2] | Tmax (in vivo [4]) [h] | also measured |
| --- | --- | --- | --- | --- | --- | --- | --- | --- | --- | --- |
| C[C@@]1(F)[C@H](O)[C@@H](CO)O[C@H]1n1cnc2c(=O)[nH]c(N)nc21 [AT-273] | 0.6 ± 0.1 | 8.0 | 10.8 ± 1.6 | 900 ± 100 | 9.8 ± 1.1 | 5.7 ± 4 | 11.6 |  |  |  |
| CNc1nc(N)nc2c1ncn2C1OC(COP(=O)(NC(C)C(=O)OC(C)C)Oc2ccccc2)C(O)C1(C)F (stereo not drawn) [AT-281] | 0.006 ± 0.002 |  | 1.7 ± 0.5 | 600 ± 200 | 3.4 ± 1 | 2 ± 1.7 | 4.2 | no AT-281 was detected | 2 | Concentration measured in lung tissue [2]: no AT-281 was detected; MRT0-last [2]: 4.5 h; EC50 (Yellow fever virus (YFV) [5]): 310 nM; EC90 (Yellow fever virus (YFV) [6]): 260 nM |
| CNc1nc(N)nc2c1ncn2[C@@H]1O[C@H](COP(=O)(N[C@@H](C)C(=O)OC(C)C)Oc2ccccc2)[C@@H](O)[C@@]1(C)F.CNc1nc(N)nc2c1ncn2[C@@H]1O[C@H](COP(=O)(N[C@@H](C)C(=O)OC(C)C)Oc2ccccc2)[C@@H](O)[C@@]1(C)F.O=S(=O)(O)O (stereo partly drawn) [AT-527] |  |  |  |  |  |  |  |  |  | Fold more potent than sofosbuvir (HCV clinical isolates): up to 58 fold |
| CNc1nc(N)nc2c1ncn2C1OC(COP(=O)(O)NC(C)C(=O)O)C(O)C1(C)F (stereo not drawn) [AT-551] | 3.4 ± 1.7 | 2.0 | 114 ± 22.1 | 52400 ± 23500 | 4.6 ± 1.5 | 0.5 | 8.5 |  |  |  |
| CNc1nc(N)nc2c1ncn2C1OC(COP(=O)(NC(C)C(=O)OC(C)C)Oc2ccccc2)C(O)C1(C)F (stereo not drawn) [AT-752] |  |  |  |  |  |  |  |  |  | Alive/total (21 days): 5/5; ALT (hamster, in vivo): 53 ± 5 IU/L; Toxicity, as evidenced by weight loss or mortality (hamster, in vivo, 1000 mg/kg): no toxicity; Half-life in rodent plasma [7]: < 3 min; Half-life in primate plasma [8]: > 280 min |
| C[C@@]1(F)[C@H](O)[C@@H](COP(=O)(O)OP(=O)(O)OP(=O)(O)O)O[C@H]1n1cnc2c(=O)[nH]c(N)nc21 [AT-9010] |  |  |  |  |  |  | 11 | no AT-9010 detected | 8 | MRT last (in vivo [4]; Mean residence times (MRT0-last) across tissues): 7 to 11 h |
